Key:
Plutella xylostella = Plutella xylostella test (cabbage leaf dip); type: in vivo; conditions: concentration 0.16 ppm; diamond back moth caterpillars on dipped cabbage leaves
Experimental: To produce a suitable preparation of active compound, 1 part by weight of active compound is mixed with the stated amounts of solvent and emulsifier, and the concentrate is diluted with emulsifier-containing Water to the desired concentration.
Cabbage leaves (Brassica oleracea) are treated by being dipped into the preparation of active compound of the desired concentration and are populated with caterpillars of the diamond back moth (Plutella xylostella) while the leaves are still moist.
After the desired period of time, the kill in % is determined. 100% means that all caterpillars have been killed; 0% means that none of the caterpillars have been killed.

Myzus persicae = Myzus persicae test (cabbage leaf dip); type: in vivo; conditions: concentration 20 ppm; peach aphid on cabbage leaves (Brassica oleracea), dipped
Experimental: To produce a suitable preparation of active compound, one part by weight of active compound is mixed with the stated amounts of solvent and emulsifier, and the concentrate is diluted with emulsifier-containing water to the desired concentration.
Cabbage leaves (Brassica oleracea) which are heavily infested by the peach aphid (Myzus persicae) are treated by being dipped into the preparation of active compound of the desired concentration.
After the desired period of time, the kill in % is determined. 100% means that all aphids have been killed; 0% means that none of the aphids have been killed.

CC[S+]([O-])c1c(C#N)nn(-c2c(Cl)cc(C(F)(F)F)cc2Cl)c1N (centres unmarked) [Ethiprole, ethiprole]
Kill in % after 6 d (Plutella xylostella): 0%
Kill in % after 6 d (Myzus persicae): 10%

Reference: patent US20080287435A1, “Active Ingredient Combinations Having Insecticide and Acaricide Properties” (Bayer CropScience AG, priority 2005, published 2008)
